Our source for the EC50, IC50 and ED50 values is the Kinase Knowledgebase extract (Sharma et al. 2016).

A word on the EC50: it is the midpoint of the concentration-response curve. High values mean a less potent agent, low ones a more potent agent. The IC50 is the concentration that gives 50% inhibition. A higher IC50 goes with lower potency. Broadly, the ED50 is the dose that gives a 50% effect, or the effect in half of the subjects. A higher ED50 goes with weaker potency.

For test [1], the target named is MAPK14 (human) (UniProt Q16539). The note with it: Monocyte.
Test [2] deals with MAPK14 (UniProt Q16539). As to the kind of experiment: P38-alpha Kinase Inhibition.
The subject of test [3] is MAPK14 (Balb/c mice). Put plainly: TNF-alpha Inhibition (Balb/c Mice).

Sequence of MAPK14 (human) (Q16539 whole entry, looked up): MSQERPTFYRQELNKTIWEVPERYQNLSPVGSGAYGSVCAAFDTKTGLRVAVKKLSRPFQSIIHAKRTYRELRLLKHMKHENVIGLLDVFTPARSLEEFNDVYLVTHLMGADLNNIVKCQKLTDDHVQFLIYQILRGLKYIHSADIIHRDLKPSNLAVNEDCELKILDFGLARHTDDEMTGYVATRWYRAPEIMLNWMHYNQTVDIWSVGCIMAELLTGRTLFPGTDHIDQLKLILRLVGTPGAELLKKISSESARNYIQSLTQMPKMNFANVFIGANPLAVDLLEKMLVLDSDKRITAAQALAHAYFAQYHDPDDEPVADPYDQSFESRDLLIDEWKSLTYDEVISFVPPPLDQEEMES
Sequence of MAPK14 (Q16539 whole entry, looked up): as above

On to `OC[C@H]1CO[C@@H](c2nc(-c3ccncc3)c(-c3ccc(F)cc3)[nH]2)OC1`, for which, in test [1], the concentration giving a half-maximal response (EC50) was found to be 0.2 µM.
The compound `CC(C)C1O[C@H](c2nc(-c3ccncc3)c(-c3ccc(F)cc3)[nH]2)OCC1(C)C` (stereo partly specified) displayed an EC50 in test [1] of 0.115 µM.
Take `Fc1ccc(-c2[nH]c([C@H]3OC[C@H](Cc4ccccc4)CO3)nc2-c2ccncc2)cc1`: in test [1], the EC50 came to 0.191 µM.
As for `C[C@]1(CNC(=O)c2ccccc2)CO[C@H](c2nc(-c3ccncc3)c(-c3ccc(F)cc3)[nH]2)OC1`, the EC50 in test [1] was 0.084 µM.
Compound `C[C@]1(N)CO[C@H](c2nc(-c3ccncc3)c(-c3ccc(F)cc3)[nH]2)OC1` had a 50% effective concentration (EC50) in test [1] of 0.18 µM.
Consider `C[C@]1(NC(=O)c2ccccc2)CO[C@H](c2nc(-c3ccncc3)c(-c3ccc(F)cc3)[nH]2)OC1`, for which the IC50 in test [2] stood at 0.044 µM. Besides, the concentration giving a half-maximal response (EC50) in test [1] came out at 0.11 µM. Further, in test [3], the ED50 was determined as 11 mg/kg.
As to `C[C@]1(N)CO[C@@H](c2nc(-c3ccncc3)c(-c3ccc(F)cc3)[nH]2)OC1`, the half-maximal effective concentration (EC50) in test [1] turned out to be 0.055 µM.
In the case of `C=C1COC(c2nc(-c3ccncc3)c(-c3ccc(F)cc3)[nH]2)OC1`, in test [1], the EC50 stood at 0.117 µM.
On to `C[C@]1(CN)CO[C@@H](c2nc(-c3ccncc3)c(-c3ccc(F)cc3)[nH]2)OC1`, for which the EC50 in test [1] came to 0.033 µM. Compared with the last compound, the EC50 is about 3.5-fold lower.
Compound `C[C@]1(CN)CO[C@H](c2nc(-c3ccncc3)c(-c3ccc(F)cc3)[nH]2)OC1` displayed an EC50 in test [1] of 0.038 µM. This EC50 and that of the compound before are within 1.5-fold of each other.
As for `C[C@]1(C(=O)N2CCOCC2)CO[C@H](c2nc(-c3ccncc3)c(-c3ccc(F)cc3)[nH]2)OC1`, the IC50 in test [2] was 0.05 µM. In test [1], this compound came in with an EC50 of 0.11 µM. The ED50 in test [3] came out at 6 mg/kg.
In turn, `Fc1ccc(-c2[nH]c([C@H]3OC[C@@H](Cc4ccccc4)CO3)nc2-c2ccncc2)cc1` returned an EC50 in test [1] of 0.145 µM.
